assay: CHI Log D procedure; format: physicochemical; details: pH 7.4

| Compound | CHI Log D |
| --- | --- |
| CC(=O)N[C@@H](Cc1ccccc1)C(=O)N[C@@H](CC(=O)O)C(=O)N[C@@H](C)C(=O)N[C@]1(C)CCCCCCC=CCOC(=O)N2CC[C@@](C(=O)N[C@@H](Cc3ccccc3)C(=O)N[C@@H](Cc3c[nH]c4ccccc34)C(=O)N[C@@H](CCC(N)=O)C(N)=O)(C2)NC(=O)[C@H](C(C)C)NC(=O)[C@H](Cc2ccccc2)NC(=O)[C@H](CCCC(=O)O)NC(=O)[C@H](C)NC(=O)[C@H](CC(=O)O)NC(=O)[C@H](CC(=O)O)NC1=O [I-23, Ac-Phe-Asp-Ala-R8-Asp-Asp-Ala-Aad-Phe-Val-PyrS-Phe-Trp-Gln-NH2] | 0.942 |
| CC(=O)N[C@@H](Cc1ccccc1)C(=O)N[C@@H](CC(=O)O)C(=O)N[C@@H](C)C(=O)N[C@]1(C)CCCCCCC=CCOC(=O)N2CC[C@@](C(=O)N[C@@H](Cc3ccccc3)C(=O)N[C@@H](Cc3c[nH]c4ccccc34)C(=O)N[C@@H](CCC(N)=O)C(N)=O)(C2)NC(=O)[C@H](C(C)C)NC(=O)[C@H](Cc2ccccc2)NC(=O)[C@H](CCCC(=O)O)NC(=O)[C@H](C)NC(=O)[C@H](CC(=O)O)NC(=O)[C@H](CC(=O)O)NC1=O [I-24, Ac-Phe-Asp-Ala-R8-Asp-Asp-Ala-Aad-Phe-Val-PyrS-Phe-Trp-Gln-NH2] | 0.977 |
| CC(=O)N[C@@H](Cc1ccccc1)C(=O)N[C@@H](CC(=O)O)C(=O)N[C@@H](C)C(=O)N[C@]1(C)CCCN(C)C(=O)OCC=CCCCC[C@@](C)(C(=O)N[C@@H](Cc2ccccc2)C(=O)N[C@@H](Cc2c[nH]c3ccccc23)C(=O)N[C@@H](CCC(N)=O)C(N)=O)NC(=O)[C@H](C(C)C)NC(=O)[C@H](Cc2ccccc2)NC(=O)[C@H](C)NC(=O)[C@H](C)NC(=O)[C@H](CC(=O)O)NC(=O)[C@H](CC(=O)O)NC1=O [I-28, Ac-Phe-Asp-Ala-ReN-Asp-Asp-Ala-Ala-Phe-Val-S6-Phe-Trp-Gln-NH2] | 1.219 |
| CC(=O)N[C@@H](Cc1ccccc1)C(=O)N[C@@H](CC(=O)O)C(=O)N[C@@H](C)C(=O)NC12CN(C1)C(=O)OCC=CCCCCC[C@@](C)(C(=O)N[C@@H](Cc1ccccc1)C(=O)N[C@@H](Cc1c[nH]c3ccccc13)C(=O)N[C@@H](CCC(N)=O)C(N)=O)NC(=O)[C@H](C(C)C)NC(=O)[C@H](Cc1ccccc1)NC(=O)[C@H](C)NC(=O)[C@H](C)NC(=O)[C@H](CC(=O)O)NC(=O)[C@H](CC(=O)O)NC2=O [I-32, Ac-Phe-Asp-Ala-Az-Asp-Asp-Ala-Ala-Phe-Val-S7-Phe-Trp-Gln-NH2] | 1.243 |
| CC(=O)N[C@@H](Cc1ccccc1)C(=O)N[C@@H](CC(=O)O)C(=O)N[C@@H](C)C(=O)NC12CN(C1)C(=O)OCC=CCCCCC[C@@](C)(C(=O)N[C@@H](Cc1ccccc1)C(=O)N[C@@H](Cc1c[nH]c3ccccc13)C(=O)N[C@@H](CCC(N)=O)C(N)=O)NC(=O)[C@H](C(C)C)NC(=O)[C@H](Cc1ccccc1)NC(=O)[C@H](C)NC(=O)[C@H](C)NC(=O)[C@H](CC(=O)O)NC(=O)[C@H](CC(=O)O)NC2=O [I-33, Ac-Phe-Asp-Ala-Az-Asp-Asp-Ala-Ala-Phe-Val-S7-Phe-Trp-Gln-NH2] | 1.228 |
| CC(=O)N[C@@H](Cc1ccccc1)C(=O)N[C@@H](CC(=O)O)C(=O)N[C@@H](C)C(=O)N[C@]1(C)CCN(C)C(=O)OCC=CCC[C@@](C)(C(=O)N[C@@H](Cc2ccccc2)C(=O)N[C@@H](Cc2c[nH]c3ccccc23)C(=O)N[C@@H](CCC(N)=O)C(N)=O)NC(=O)[C@H](C(C)C)NC(=O)[C@H](Cc2ccccc2)NC(=O)[C@H](C)NC(=O)[C@H](C)NC(=O)[C@H](CC(=O)O)NC(=O)[C@H](CC(=O)O)NC1=O [I-42, Ac-Phe-Asp-Ala-RdN-Asp-Asp-Ala-Ala-Phe-Val-S4-Phe-Trp-Gln-NH2] | 1.09 |
| CC(=O)N[C@@H](Cc1ccccc1)C(=O)N[C@@H](CC(=O)O)C(=O)N[C@@H](C)C(=O)N[C@]1(C)CCCCCCC=CCOC(=O)N2CC[C@@](C(=O)N[C@@H](Cc3ccccc3)C(=O)N[C@@H](Cc3c[nH]c4ccccc34)C(=O)N[C@@H](CCC(N)=O)C(N)=O)(C2)NC(=O)[C@H](C(C)C)NC(=O)[C@H](Cc2ccccc2)NC(=O)[C@H](C)NC(=O)[C@H](C)NC(=O)[C@H](CCC(N)=O)NC(=O)[C@H](CC(=O)O)NC1=O [I-59, Ac-Phe-Asp-Ala-R8-Asp-Gln-Ala-Ala-Phe-Val-PyrS-Phe-Trp-Gln-NH2] | 1.531 |
| CCCC[C@@H]1NC(=O)[C@H](CC(=O)O)NC(=O)[C@](C)(NC(=O)[C@@H](NC(=O)[C@H](CC(=O)O)NC(=O)[C@H](C)NC(C)=O)[C@@H](C)CC)CCN(C)C(=O)OCC=CCCCCC[C@@](C)(C(=O)N[C@@H](Cc2ccccc2)C(=O)N[C@@H](Cc2c[nH]c3ccccc23)C(=O)N[C@@H](Cc2c[nH]cn2)C(N)=O)NC(=O)[C@H](CCC(N)=O)NC(=O)[C@H](Cc2ccccc2)NC(=O)[C@H](C)NC(=O)[C@H](C)NC1=O [I-68, Ac-Ala-Asp-Ile-RdN-Asp-nLeu-Ala-Ala-Phe-Gln-S7-Phe-Trp-His-NH2] | 1.553 |

same assay, conditions: pH 7.4, CHI Log D

| Compound | chromatographic logD |
| --- | --- |
| CC(=O)N[C@@H](Cc1ccccc1)C(=O)N[C@@H](CC(=O)O)C(=O)N[C@@H](C)C(=O)N[C@]1(C)CCCCC=CCOC(=O)N(C)CCC[C@@](C)(C(=O)N[C@@H](Cc2ccccc2)C(=O)N[C@@H](Cc2c[nH]c3ccccc23)C(=O)N[C@@H](CCC(N)=O)C(N)=O)NC(=O)[C@H](C(C)C)NC(=O)[C@H](Cc2ccccc2)NC(=O)[C@H](C)NC(=O)[C@H](C)NC(=O)[C@H](CC(=O)O)NC(=O)[C@H](CC(=O)O)NC1=O [I-26, Ac-Phe-Asp-Ala-R6-Asp-Asp-Ala-Ala-Phe-Val-SeN-Phe-Trp-Gln-NH2] | 1.25 |
| CC(=O)N[C@@H](Cc1ccccc1)C(=O)N[C@@H](CC(=O)O)C(=O)N[C@@H](C)C(=O)N[C@]1(C)CCCN(C)C(=O)OCC=CCCC[C@@](C)(C(=O)N[C@@H](Cc2ccccc2)C(=O)N[C@@H](Cc2c[nH]c3ccccc23)C(=O)N[C@@H](CCC(N)=O)C(N)=O)NC(=O)[C@H](C(C)C)NC(=O)[C@H](Cc2ccccc2)NC(=O)[C@H](C)NC(=O)[C@H](C)NC(=O)[C@H](CC(=O)O)NC(=O)[C@H](CC(=O)O)NC1=O [I-27, Ac-Phe-Asp-Ala-ReN-Asp-Asp-Ala-Ala-Phe-Val-S5-Phe-Trp-Gln-NH2] | 1.15 |
| CC(=O)N[C@@H](Cc1ccccc1)C(=O)N[C@@H](CC(=O)O)C(=O)N[C@@H](C)C(=O)N[C@]1(C)CCCCCCC=CCOC(=O)N(C)C[C@@](C)(C(=O)N[C@@H](Cc2ccccc2)C(=O)N[C@@H](Cc2c[nH]c3ccccc23)C(=O)N[C@@H](CCC(N)=O)C(N)=O)NC(=O)[C@H](C(C)C)NC(=O)[C@H](Cc2ccccc2)NC(=O)[C@H](C)NC(=O)[C@H](C)NC(=O)[C@H](CC(=O)O)NC(=O)[C@H](CC(=O)O)NC1=O [I-34, Ac-Phe-Asp-Ala-R8-Asp-Asp-Ala-Ala-Phe-Val-SgN-Phe-Trp-Gln-NH2] | 1.32 |
| CC(=O)N[C@@H](Cc1ccccc1)C(=O)N[C@@H](CC(=O)O)C(=O)N[C@@H](C)C(=O)N[C@]1(C)CCC=CCOC(=O)N(C)CCC[C@@](C)(C(=O)N[C@@H](Cc2ccccc2)C(=O)N[C@@H](Cc2c[nH]c3ccccc23)C(=O)N[C@@H](CCC(N)=O)C(N)=O)NC(=O)[C@H](C(C)C)NC(=O)[C@H](Cc2ccccc2)NC(=O)[C@H](C)NC(=O)[C@H](C)NC(=O)[C@H](CC(=O)O)NC(=O)[C@H](CC(=O)O)NC1=O [I-36, Ac-Phe-Asp-Ala-R4-Asp-Asp-Ala-Ala-Phe-Val-SeN-Phe-Trp-Gln-NH2] | 1.13 |
| CC(=O)N[C@@H](Cc1ccccc1)C(=O)N[C@@H](CC(=O)O)C(=O)N[C@@H](C)C(=O)N[C@]1(C)CCCC=CCOC(=O)N(C)CC[C@@](C)(C(=O)N[C@@H](Cc2ccccc2)C(=O)N[C@@H](Cc2c[nH]c3ccccc23)C(=O)N[C@@H](CCC(N)=O)C(N)=O)NC(=O)[C@H](C(C)C)NC(=O)[C@H](Cc2ccccc2)NC(=O)[C@H](C)NC(=O)[C@H](C)NC(=O)[C@H](CC(=O)O)NC(=O)[C@H](CC(=O)O)NC1=O [I-37, Ac-Phe-Asp-Ala-R5-Asp-Asp-Ala-Ala-Phe-Val-SdN-Phe-Trp-Gln-NH2] | 1.16 |
| CC(=O)N[C@@H](Cc1ccccc1)C(=O)N[C@@H](CC(=O)O)C(=O)N[C@@H](C)C(=O)N[C@]1(C)CCCCCC=CCOC(=O)N2CC(C(=O)N[C@@H](Cc3ccccc3)C(=O)N[C@@H](Cc3c[nH]c4ccccc34)C(=O)N[C@@H](CCC(N)=O)C(N)=O)(C2)NC(=O)[C@H](C(C)C)NC(=O)[C@H](Cc2ccccc2)NC(=O)[C@H](C)NC(=O)[C@H](C)NC(=O)[C@H](CC(=O)O)NC(=O)[C@H](CC(=O)O)NC1=O [I-38, Ac-Phe-Asp-Ala-R7-Asp-Asp-Ala-Ala-Phe-Val-Az-Phe-Trp-Gln-NH2] | 1.21 |
| CC(=O)N[C@@H](Cc1ccccc1)C(=O)N[C@@H](CC(=O)O)C(=O)N[C@]1(C)CCCCCCC=CCOC(=O)N2CC[C@@](C(=O)N[C@@H](C)C(=O)N[C@@H](Cc3ccccc3)C(=O)N[C@@H](Cc3c[nH]c4ccccc34)C(=O)N[C@@H](CCC(N)=O)C(N)=O)(C2)NC(=O)[C@H](Cc2ccccc2)NC(=O)[C@H](C)NC(=O)[C@H](C)NC(=O)[C@H](CC(=O)O)NC(=O)[C@H](CC(=O)O)NC(=O)[C@H](C)NC1=O [I-51, Ac-Phe-Asp-R8-Ala-Asp-Asp-Ala-Ala-Phe-PyrS-Ala-Phe-Trp-Gln-NH2] | 1.25 |
| CCCC[C@@H]1NC(=O)[C@H](C)NC(=O)[C@H](C)NC(=O)[C@H](CC(=O)O)NC(=O)[C@H](CC(=O)O)NC(=O)[C@](C)(NC(=O)[C@H](C)NC(=O)[C@H](CC(=O)O)NC(=O)[C@H](Cc2ccccc2)NC(C)=O)CCCCCCC=CCOC(=O)N2CC[C@@](C(=O)N[C@@H](Cc3ccccc3)C(=O)N[C@@H](Cc3c[nH]c4ccccc34)C(=O)N[C@@H](CCC(N)=O)C(N)=O)(C2)NC(=O)[C@H](C(C)C)NC1=O [I-76, Ac-Phe-Asp-Ala-R8-Asp-Asp-Ala-Ala-nLeu-Val-PyrS-Phe-Trp-Gln-NH2] | 1.2 |
| CC(=O)N[C@@H](Cc1ccccc1)C(=O)N[C@@H](CC(=O)O)C(=O)N[C@@H](C)C(=O)N[C@]1(C)CCCCCCC=CCOC(=O)N2CC[C@@](C(=O)N[C@@H](Cc3ccccc3)C(=O)N[C@@H](Cc3c[nH]c4ccccc34)C(=O)N[C@@H](CCC(N)=O)C(N)=O)(C2)NC(=O)[C@H](C(C)C)NC(=O)[C@H](Cc2cccc(F)c2)NC(=O)[C@H](C)NC(=O)[C@H](C)NC(=O)[C@H](CC(=O)O)NC(=O)[C@H](CC(=O)O)NC1=O [I-77, Ac-Phe-Asp-Ala-R8-Asp-Asp-Ala-Ala-3FF-Val-PyrS-Phe-Trp-Gln-NH2] | 1.28 |

From patent publication US20240116985A1, “STAPLED PEPTIDES AND METHODS THEREOF” (priority 2020, published 2024)
